Results published in patent US10640457B2, “Histone acetyltransferase activators and uses thereof” (The Trustees of Columbia University in the City of New York, priority 2009, dated 2020).
Values joined by “and” are separate entries in the source; they are usually repeats but may differ in a detail not shown here. Identical values can stand only once. “Also recorded” adds a separate entry of the source.

Columns and labels:
[1] = molecular target: T1, Sirtuin 1 (Homo sapiens, UniProt Q96EB6); experiment: Sirtuin 1 fluorogenic activity assay; settings: for % Activity: Repeat1/Repeat2, listed as OA2
T1 sequence (Q96EB6 1-747): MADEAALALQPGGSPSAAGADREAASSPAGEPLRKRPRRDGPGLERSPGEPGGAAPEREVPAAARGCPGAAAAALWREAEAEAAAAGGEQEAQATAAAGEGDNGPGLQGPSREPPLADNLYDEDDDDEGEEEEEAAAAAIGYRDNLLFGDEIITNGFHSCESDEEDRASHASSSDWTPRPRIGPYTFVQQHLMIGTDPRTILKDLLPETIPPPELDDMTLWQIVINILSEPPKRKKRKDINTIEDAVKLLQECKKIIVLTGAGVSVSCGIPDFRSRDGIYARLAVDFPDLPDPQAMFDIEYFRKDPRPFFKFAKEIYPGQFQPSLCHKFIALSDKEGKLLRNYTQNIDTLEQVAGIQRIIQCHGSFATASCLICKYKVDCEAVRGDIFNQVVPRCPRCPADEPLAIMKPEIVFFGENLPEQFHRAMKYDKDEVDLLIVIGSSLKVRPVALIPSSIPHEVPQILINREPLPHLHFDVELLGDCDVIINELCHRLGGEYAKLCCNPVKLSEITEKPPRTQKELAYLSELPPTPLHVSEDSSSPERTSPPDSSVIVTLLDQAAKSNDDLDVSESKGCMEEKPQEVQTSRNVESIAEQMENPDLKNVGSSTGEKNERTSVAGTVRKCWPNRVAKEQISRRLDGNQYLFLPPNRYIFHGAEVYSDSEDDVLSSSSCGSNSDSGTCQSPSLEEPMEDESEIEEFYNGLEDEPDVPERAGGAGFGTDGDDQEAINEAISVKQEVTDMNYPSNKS

[2] = molecular target: T2, HDAC11 (Homo sapiens, UniProt Q96DB2); experiment: HDAC11 fluorogenic activity assay; settings: for % Activity: Repeat1/Repeat2, listed as OA2
T2 sequence (Q96DB2 1-347): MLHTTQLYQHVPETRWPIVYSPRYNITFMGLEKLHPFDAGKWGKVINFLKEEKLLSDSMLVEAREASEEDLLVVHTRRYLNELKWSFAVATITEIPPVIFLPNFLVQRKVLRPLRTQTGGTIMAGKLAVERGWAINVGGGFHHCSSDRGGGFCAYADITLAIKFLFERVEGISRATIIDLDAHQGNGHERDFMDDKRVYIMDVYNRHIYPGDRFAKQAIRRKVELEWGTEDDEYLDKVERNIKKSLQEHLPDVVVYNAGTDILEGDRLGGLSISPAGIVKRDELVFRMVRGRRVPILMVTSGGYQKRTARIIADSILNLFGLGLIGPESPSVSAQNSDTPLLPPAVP

[3] = molecular target: T3, CBP (Homo sapiens, UniProt Q92793); experiment: In vitro HAT activation assay, CBP; type: biochemical
T3 construct: we will use the catalytic domain of human CBP, PCAF, p300 and GCNS (Enzo Life Sci., USA); purchased Enzo Life Sci
Description: Compounds will be tested for HAT activator activity first, using the HAT Assay kit from Active Motif (USA, CA). For this assay, we will use the catalytic domain of human CBP, PCAF, p300 and GCNS (Enzo Life Sci., USA). The catalytic domains for the remaining HATs will be produced using New England Biolabs K. lactis Protein Expression Kit. […] When assayed against all other HATs, they must show at least a 50 fold greater potency towards CBP and/or PCAF.

[4] = system: hippocampal slices from APP/PS1 mice; experiment: CA1 LTP in hippocampal slices of APP/PS1 and WT mice (TSA)
Procedure: At this age the Tg mice just start showing the synaptic plasticity and memory impairments [A29] (herein incorporated by reference in its entirety). Basal synaptic transmission (BST) was similar between APP/PS1 and WT mice. We found no difference in BST among the 2 groups as previously shown in mice of this age [A29] (herein incorporated by reference in its entirety). Hippocampal slices were then perfused with TSA (1.65 μM) for 30 min before inducing LTP through tetanic stimulation of the Schaeffer collateral pathway. Potentiation in TSA treated APP/P S1 slices was far greater than in vehicle-treated APP/PS1 slices (FIG. 17). […] The observation that inspired these studies was the result of a series of experiments in which we tested whether a brief application of the HDAC inhibitor TSA was capable of rescuing the defect in LTP shown by slices from 3-4 month-old APP/PS1 mice (for a detailed description of the experiments showing the characterization of these mice [B50]; herein incorporated by reference in its entirety). At this age the transgenic mice just start showing the synaptic plasticity and memory impairments [B14, B50] (each herein incorporated by reference in its entirety)). […] (each herein incorporated by reference in its entirety), basal synaptic transmission (BST) was similar between APP/PS1 and WT mice. Hippocampal slices were then perfused with TSA (1.65 nM) for 30 min before inducing LTP through tetanic stimulation of the Schaeffer collateral pathway. Potentiation in TSA treated APP/PS1 slices was far greater than in vehicle-treated APP/PS1 slices (two-way ANOVA: F1,11=13.166, p=0.004; FIG. 17). […] Thus, HDAC inhibition is capable of rescuing the defect in LTP in the APP/PS1 animal model of Aβ deposition.

T3 sequence (Q92793 1323-1700 limits assumed): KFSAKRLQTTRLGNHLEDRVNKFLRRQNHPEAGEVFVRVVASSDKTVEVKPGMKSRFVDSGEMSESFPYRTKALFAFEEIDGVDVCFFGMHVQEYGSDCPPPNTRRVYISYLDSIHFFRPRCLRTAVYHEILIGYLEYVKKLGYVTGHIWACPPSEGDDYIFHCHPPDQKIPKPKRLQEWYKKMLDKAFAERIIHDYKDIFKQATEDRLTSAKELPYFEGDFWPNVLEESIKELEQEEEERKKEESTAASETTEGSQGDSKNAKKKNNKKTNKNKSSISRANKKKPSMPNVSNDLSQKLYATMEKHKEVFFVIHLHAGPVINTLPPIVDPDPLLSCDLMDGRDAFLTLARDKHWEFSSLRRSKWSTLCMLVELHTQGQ

## CCOc1cccc(OCCN(C)C)c1C(=O)Nc1ccc(Cl)c(C(F)(F)F)c1 [YF2]
[1]
  IC50: > 200 µM
[1]; OA2 Log[nM] 0.5
  % Activity: 94.26% and 99.92%
[1]; OA2 Log[nM] 1.0
  % Activity: 87.25% and 99.42%
[1]; OA2 Log[nM] 1.5
  % Activity: 100.27% and 87.48%
[1]; OA2 Log[nM] 2.0
  % Activity: 97.98% and 92.56%
[1]; OA2 Log[nM] 2.5
  % Activity: 101.56% and 100.81%
[1]; OA2 Log[nM] 3.0
  % Activity: 108.86% and 94.87%
[1]; OA2 Log[nM] 3.5
  % Activity: 96.93% and 100.23%
[1]; OA2 Log[nM] 4.0
  % Activity: 96.69% and 89.85%
[1]; OA2 Log[nM] 4.5
  % Activity: 98.83% and 93.79%
[1]; OA2 Log[nM] 5.3
  % Activity: 99.02% and 100.98%
[2]
  IC50: > 200 µM
[2]; OA2 Log[nM] 0.5
  % Activity: 86.81%
[2]; OA2 Log[nM] 4.5
  % Activity: 108.09%
[2]; OA2 Log[nM] 5.3
  % Activity: 132.07% and 115.35%
[3]
  EC50: 2.7 µM

## CC(/C=C/C(=O)NO)=C\[C@@H](C)C(=O)c1ccc(N(C)C)cc1 [TSA, trichostatin A]
[4]; APP/PS1 and WT slices that received no tetanus
  baseline transmission: did not affect
[4]; WT slices, TSA perfused 30 min
  amplitude of LTP in WT slices: did not change; also recorded: no effect
[4]; slices of 3-4 month-old APP/PS1 mice, TSA perfused 30 min before tetanus
  potentiation (LTP) vs vehicle-treated APP/PS1 slices: far greater; also recorded: reverses
